Consider 31 compounds from US7300946B2, “N-(substituted arylmethyl)-4-(disubstituted methyl) piperidines and pyridines” (Bayer CropScience AG, priority 2002, dated 2007).

This experiment relates to tobacco budworm (Heliothis virescens [Fabricius]). In words: surface-treated diet test against the tobacco budworm. The format is in vivo. The following applies: tobacco budworm second instar larvae, 0.25 millimoles of candidate insecticide on the surface of the diet, five-day exposure; for Percent Mortality: compared to total number of insects infested; for Percent Growth Inhibition: inhibition of insect weight relative to untreated controls. As to the method: Candidate insecticides were evaluated for activity against the tobacco budworm (Heliothis virescens [Fabricius]) in a surface-treated diet test.
In this test one mL of molten (65–70° C.) wheat germ-based artificial diet was pipetted into each well of a four by six (24 well) multi-well plate (ID# 430345-15.5 mm dia.×17.6 mm deep; Corning Costar Corp., One Alewife Center, Cambridge, Mass. 02140). The diet was allowed to cool to ambient temperature before treatment with candidate insecticide.
For a determination of insecticidal activity, solutions of the candidate insecticides were prepared for testing using a Packard 204DT Multiprobe® Robotic System (Packard Instrument Company, 800 Research Parkway, Meriden, Conn. 06450), in which the robot first diluted a standard 50 millimolar DMSO solution of candidate insecticide with a 1:1 water/acetone solution (V/V) in a ratio of 1:7 stock solution to water/acetone. The robot subsequently pipetted 40 microliters of the so-prepared solution onto the surface of the diet in each of three wells in the 24 multi-well plate. The process was repeated with solutions of seven other candidate insecticides. Once treated, the contents of the multi-well plate were allowed to dry, leaving 0.25 millimoles of candidate insecticide on the surface of the diet, or a concentration of 0.25 millimolar. Appropriate untreated controls containing only DMSO on the diet surface were also included in this test. […]
In each well of the test plate was placed one second instar tobacco budworm larvea, each weighing approximately five milligrams. After the larvae were placed in each well, the plate was sealed with clear polyfilm adhesive tape. The tape over each well was perforated to ensure an adequate air supply. The plates were then held in a growth chamber at 25° C. and 60% relative humidity for five days (light 14 hours/day).
After the five-day exposure period insecticidal activity for each rate of application of candidate insecticide was assessed as percent inhibition of insect weight relative to the weight of insects from untreated controls, and percent mortality when compared to the total number of insects infested.
The test compounds of formula I are identified by numbers that correspond to those in Table 1.
These tests were conducted with 0.25 millimoles of candidate insecticide on the surface of the diet.

With `CCCNC(=O)OC(c1ccc(C(F)(F)F)cc1)C1CCN(Cc2ccc(Oc3ccccn3)cc2)CC1` (centres unmarked) [Compound 427], for the setting “surface-treated diet”, the “Percent Mortality” value is 33% and the “Percent Growth Inhibition” value turned out to be 100%.

With `Cn1nnc(-c2ccc(CN3CCC(C(NC(=O)Oc4ccccc4F)c4ccc(OC(F)(F)F)cc4)CC3)cc2)n1` (centres unmarked) [Compound 351], under “surface-treated diet”, the “Percent Mortality” value was 50% and the “Percent Growth Inhibition” value is 100%.

Turning to `CCn1nnc(-c2ccc(CN3CCC(C(OC(=O)Nc4ccc(F)c(F)c4)c4cc(Cl)cc(Cl)c4)CC3)cc2)n1` (centres unmarked) [Compound 579], under “surface-treated diet”, the “Percent Mortality” value was 100% and the “Percent Growth Inhibition” value is listed as 100%.

With `CCCOc1ccc(CN2CCC(C(OC(=O)Nc3ccc(C(F)(F)F)cc3)c3cccc(C(F)(F)F)c3)CC2)cc1` (centres unmarked) [Compound 489], where the note is “surface-treated diet”, the “Percent Mortality” value is on record as 100% and the “Percent Growth Inhibition” value is recorded as 100%.

With `CCn1nnc(-c2ccc(CN3CCC(C(OC(=O)Nc4ccc(C(F)(F)F)cc4)c4cc(Cl)cc(Cl)c4)CC3)cc2)n1` (centres unmarked) [Compound 581], where the note is “surface-treated diet”, the “Percent Mortality” value is given as 100% and the “Percent Growth Inhibition” value is reported as 100%.

Turning to `CCn1nnc(-c2ccc(CN3CCC(C(OC(=O)Nc4ccc(Cl)c(C(F)(F)F)c4)c4ccc(C(F)(F)F)cc4)CC3)cc2)n1` (centres unmarked) [Compound 292], where the note is “surface-treated diet”, the “Percent Mortality” value is reported as 100% and the “Percent Growth Inhibition” value stood at 100%.

In the case of `O=C(Nc1ccc(Cl)cc1)OC(c1cccc(C(F)(F)F)c1)C1CCN(Cc2ccc(Oc3ccccn3)cc2)CC1` (centres unmarked) [Compound 652], for the setting “surface-treated diet”, the “Percent Mortality” value turned out to be 100% and the “Percent Growth Inhibition” value was found to be 100%.

As for `CCn1nnc(-c2ccc(CN3CCC(C(OC(=O)Nc4cc(F)cc(C(F)(F)F)c4)c4ccccc4)CC3)cc2)n1` (centres unmarked) [Compound 566], under “surface-treated diet”, the “Percent Mortality” value came out at 100% and the “Percent Growth Inhibition” value was determined as 100%.

In the case of `Cn1nnc(-c2ccc(CN3CCC(C(NCc4ccc(F)cc4)c4ccc(OC(F)(F)F)cc4)CC3)cc2)n1` (centres unmarked) [Compound 315], where the note is “surface-treated diet”, the “Percent Mortality” value is reported as 100% and the “Percent Growth Inhibition” value is given as 100%.

Consider `CCn1nnc(-c2ccc(CN3CCC(C(OC(=O)Nc4cc(F)cc(F)c4)c4cccc(F)c4)CC3)cc2)n1` (centres unmarked) [Compound 585], for which, under “surface-treated diet”, the “Percent Mortality” value came out at 100% and the “Percent Growth Inhibition” value turned out to be 100%.

In the case of `O=C(Nc1cc(F)ccc1F)OC(c1ccc(C(F)(F)F)cc1)C1CCN(Cc2ccc(Oc3ccccn3)cc2)CC1` (centres unmarked) [Compound 239], for the setting “surface-treated diet”, the “Percent Mortality” value stood at 100% and the “Percent Growth Inhibition” value came to 100%.

`O=C(Nc1ccccc1)OC(c1ccc(C(F)(F)F)cc1)C1CCN(Cc2ccc(Oc3ccccn3)cc2)CC1` (centres unmarked) [Compound 657]: under “surface-treated diet”, the “Percent Mortality” value turned out to be 100% and the “Percent Growth Inhibition” value is recorded as 100%.

As to `C#CCON=Cc1ccc(C[N+]2([O-])CCC(C(OC(=O)Nc3cc(F)cc(F)c3)c3ccc(C(F)(F)F)cc3)CC2)cc1` (centres unmarked) [Compound 744], the “Percent Mortality” value is recorded as 100% and the “Percent Growth Inhibition” value came to 100%.

For `O=C(Nc1cc(F)cc(F)c1)OC(c1ccc(C(F)(F)F)cc1)C1CCN(Cc2ccc(Oc3ccccc3F)cc2)CC1` (centres unmarked) [Compound 547], under “surface-treated diet”, the “Percent Mortality” value was found to be 100% and the “Percent Growth Inhibition” value amounted to 100%.

With `CC(C)OC(=O)Nc1ccc(CN2CCC(C(OC(=O)Nc3cc(F)cc(F)c3)c3ccc(C(F)(F)F)cc3)CC2)cc1` (centres unmarked) [Compound 512], under “surface-treated diet”, the “Percent Mortality” value is on record as 100% and the “Percent Growth Inhibition” value was determined as 100%.

Take `COc1ccc(CNC(=O)OC(c2ccc(C(F)(F)F)cc2)C2CCN(Cc3ccc(Oc4ccccn4)cc3)CC2)cc1` (centres unmarked) [Compound 698]: for the setting “surface-treated diet”, the “Percent Mortality” value was found to be 100% and the “Percent Growth Inhibition” value is 100%.

For the compound `CS(=O)(=O)Nc1ccc(CN2CCC(=C(c3ccc(C(F)(F)F)cc3)c3ccc(C(F)(F)F)cc3)CC2)cc1` [Compound 805], the “Percent Mortality” value is listed as 33% and the “Percent Growth Inhibition” value was 100%.

In the case of `CC(C)OC(=O)Nc1ccc(CN2CCC(C(OC(=O)Nc3cccc(F)c3)c3ccc(OC(F)(F)F)cc3)CC2)cc1` (centres unmarked) [Compound 514], under “surface-treated diet”, the “Percent Mortality” value is reported as 100% and the “Percent Growth Inhibition” value was 100%.

`CCOC(=O)c1ccc(CN2CCC(=C(c3ccc(C(F)(F)F)cc3)c3ccc(C(F)(F)F)cc3)CC2)cc1` [Compound 50]: for the setting “surface-treated diet”, the “Percent Mortality” value came out at 67% and the “Percent Growth Inhibition” value is 96%.

In the case of `CCn1nnc(-c2ccc(CN3CCC(=C(c4ccc(F)cc4)c4ccc(C(F)(F)F)cc4)CC3)cc2)n1` [Compound 81], where the note is “surface-treated diet”, the “Percent Mortality” value turned out to be 100% and the “Percent Growth Inhibition” value was 100%.

In the case of `FC(F)(F)c1ccc(C(=C2CCN(Cc3ccc(Oc4ncccn4)cc3)CC2)c2ccc(Cl)c(Cl)c2)cc1` [Compound 818], the “Percent Mortality” value was 100% and the “Percent Growth Inhibition” value came to 100%.

As for `[O-][N+]1(Cc2ccc(Nc3ccccn3)cc2)CCC(=C(c2ccc(C(F)(F)F)cc2)c2ccc(C(F)(F)F)cc2)CC1` (centres unmarked) [Compound 843], the “Percent Mortality” value was 100% and the “Percent Growth Inhibition” value is given as 100%.

In the case of `CCn1nnc(-c2ccc(C[N+]3([O-])CCC(=C(c4ccc5c(c4)OC(F)(F)O5)c4ccc5c(c4)OC(F)(F)O5)CC3)cc2)n1` (centres unmarked) [Compound 115], where the note is “surface-treated diet”, the “Percent Mortality” value was found to be 100% and the “Percent Growth Inhibition” value was found to be 100%.

In the case of `O=C(Nc1ccc(C(F)(F)F)cc1)OC(c1ccc(F)cc1)C1CCN(Cc2ccc(Oc3ccccn3)cc2)CC1` (centres unmarked) [Compound 643], where the note is “surface-treated diet”, the “Percent Mortality” value amounted to 100% and the “Percent Growth Inhibition” value was 100%.

As for `CCn1nnc(-c2ccc(CN3CCC(C(OC(=O)Nc4ccc(Cl)c(Cl)c4)c4ccccc4Cl)CC3)cc2)n1` (centres unmarked) [Compound 568], under “surface-treated diet”, the “Percent Mortality” value was 100% and the “Percent Growth Inhibition” value amounted to 100%.

As to `CC(C)NC(=O)Oc1ccc(C[N+]2([O-])CCC(=C(c3ccc(C(F)(F)F)cc3)c3ccc(C(F)(F)F)cc3)CC2)cc1` (centres unmarked) [Compound 830], the “Percent Mortality” value is on record as 100% and the “Percent Growth Inhibition” value is recorded as 100%.

`O=C(Nc1cc(F)cc(F)c1)OC(C1=CCN(Cc2ccc(Oc3ncccn3)cc2)CC1)c1ccc(C(F)(F)F)cc1` (centres unmarked) [Compound 786, N-(3,5-difluorophenyl)({1-[(4-pyrimidin-2-yloxyphenyl)methyl](4-1,2,5,6-tetrahydropyridyl)}[4-(trifluoromethyl)phenyl]methoxy)carboxamide]: the “Percent Mortality” value was found to be 100% and the “Percent Growth Inhibition” value is given as 100%.

As to `Cn1nnc(-c2ccc(CN3CCC(C(NC(=O)Oc4ccc(OC(F)(F)F)cc4)c4ccc(OC(F)(F)F)cc4)CC3)cc2)n1` (centres unmarked) [Compound 357], under “surface-treated diet”, the “Percent Mortality” value was 100% and the “Percent Growth Inhibition” value is listed as 100%.

For `CCCOc1ccc(CN2CCC(C(OC(=O)Nc3ccc(Cl)cc3)c3cccc(C(F)(F)F)c3)CC2)cc1` (centres unmarked) [Compound 485], where the note is “surface-treated diet”, the “Percent Mortality” value is recorded as 100% and the “Percent Growth Inhibition” value stood at 100%.

As to `Cn1nnc(-c2ccc(CN3CCC(C(NC(=O)Nc4ccccc4F)c4ccc(OC(F)(F)F)cc4)CC3)cc2)n1` (centres unmarked) [Compound 338], where the note is “surface-treated diet”, the “Percent Mortality” value amounted to 100% and the “Percent Growth Inhibition” value is recorded as 100%.

For the compound `CCn1nnc(-c2ccc(CN3CCC(C(OC(=O)Nc4cc(F)cc(F)c4)c4ccc(-c5ccccc5)cc4)CC3)cc2)n1` (centres unmarked) [Compound 614], for the setting “surface-treated diet”, the “Percent Mortality” value is given as 16% and the “Percent Growth Inhibition” value is 99%.
